Experimental data published in patent publication US10052322B2 (SIGNAL PHARMACEUTICALS, LLC, priority 2013, dated 2018).
Values after ≈ are worked out from the molar mass of the structure shown. “Also recorded” adds a separate entry of the source. Read-outs that look alike come from different tables or passages of the source. Blank lines part the entries; values can stand above or below the compound they belong to.

What was measured:
Format in all cases: physicochemical
[1] = Evaporation experiments (XRPD); conditions: evaporation at 50° C.
Method: (§1) All of the solid samples generated in the polymorph screen were analyzed by XRPD. XRPD analysis was conducted on a Thermo ARL X'TRA X-ray powder diffractometer using Cu Kα radiation at 1.54 Å. The instrument was equipped with a fine focus X-ray tube. The voltage and amperage of the X-ray generator were set at 45 kV and 40 mA, respectively. The divergence slits were set at 4 mm and 2 mm and the measuring slits were set at 0.5 mm and 0.2 mm. Diffracted radiation was measured using a Peltier-cooled Si (Li) solid-state detector. A theta-two theta continuous scan at 2.40/min (0.5 sec/0.02° step) from 1.5° to 40° 2θ was used. A sintered alumina standard was used to check the peak positions. […] The resulting mixture was agitated for at least 24 hours at room temperature and 50° C. separately. Upon reaching equilibrium, the saturated supernatant solution was removed and allowed to evaporate slowly in an open vial under nitrogen at room temperature and 50° C., respectively. The solid resulting from the equilibration was filtered and air-dried before analysis.

[2] = Hygroscopicity by dynamic vapor sorption (DVS)
Method: Hygroscopicity was determined on a Surface Measurement Systems DVS. Typically a sample size of 2-10 mg was loaded into the DVS instrument sample pan and the sample was analyzed on a DVS automated sorption analyzer at room temperature. […] The relative humidity was then decreased in a similar manner to accomplish a full adsorption/desorption cycle. For selected hydrated forms, the analysis started at 50% RH and increased to 90% RH at 10% RH step. The relative humidity was then decreased in a similar manner to 0% RH followed by increasing to 50% RH.

[3] = Form transfer / competitive slurry experiments
Method: The resulting mixture was agitated for at least 24 hours at room temperature and 50° C. separately. Upon reaching equilibrium, the saturated supernatant solution was removed and allowed to evaporate slowly in an open vial under nitrogen at room temperature and 50° C., respectively. The solid resulting from the equilibration was filtered and air-dried before analysis.

[4] = Solubility of Form A in selected aqueous and organic solvents (HPLC); conditions: thermodynamic from solid, read-out: Solubility (mg/mL) (room temperature)
Method: Solubility of Form A in selected aqueous and organic solvents was determined by mixing solid with solvents at room temperature. […] Solubility of Form B and Form C in water was also determined by the same HPLC method.

[5] = Equilibration / slurry experiments of Form A (XRPD)
Method: as §1

[6] = humidity from about 0% to about 50% RH at about 25° C.
[7] = humidity from about 0% to about 95% RH at about 25° C.
[8] = humidity increased from about 0% to about 80% RH
[9] = humidity increased from about 80% to about 90% RH
[10] = slurry in MeOH/water (1:1), seed None, 1 week

XRPD Result ([1]; Methanol): Form A + B
XRPD Result ([1]; Tetrahydrofuran): Amorphous, degraded
Moisture sorption (wt % at 90% RH) [2]: 0.4 wt %
weight gain [2, 6]: about 0.2 % w/w
weight gain [2, 7]: about 0.5 % w/w
mass gain [2, 8]: less than 0.35 % w/w
mass gain [2, 9]: about 0.08 % w/w
XRPD Result ([3]; slurry in Acetonitrile, seed None, 2 weeks): Form A
XRPD Result ([3]; slurry in EtOH/H2O (1:1), seed Form B, 1 week): Form A
XRPD Result ([3]; slurry in EtOH/H2O (1:1), seed Form C, 1 week): Form A
XRPD Result ([3]; slurry in Ethanol/Water (1:1), seed None, 2 weeks): Form A
XRPD Result ([3]; slurry in H2O, seed Form B, 1 week): Form A
XRPD Result ([3]; slurry in H2O, seed Form C, 7 weeks): Form A + C
XRPD Result ([3]; slurry in H2O, seed None, 2 weeks): Form A
XRPD Result ([3]; slurry in MTBE, seed None, 2 weeks): Form A
XRPD Result ([3]; slurry in MeOH, seed Form B, 1 week): Form A
XRPD Result ([3]; slurry in MeOH, seed Form C, 1 week): Form A
XRPD Result ([3]; slurry in MeOH, seed None, 2 weeks): Form A
solubility at 24 h ([4]; 0.1N HCl, simulated gastric fluid): 7.1 mg/mL (≈ 21100 µM)
solubility at 24 h ([4]; 0.9% NaCl, saline or isotonic): 0.03 mg/mL (≈ 89.2 µM)
solubility at 24 h ([4]; acetone, organic solvent or mixture): 0.46 mg/mL (≈ 1370 µM)
solubility at 24 h ([4]; acetonitrile, organic solvent or mixture): 0.14 mg/mL (≈ 416 µM)
solubility at 24 h ([4]; aqueous buffer, Acetate buffer pH 4.0): 0.06 mg/mL (≈ 178 µM)
solubility at 24 h ([4]; aqueous buffer, Phosphate buffer pH 6.8): 0.05 mg/mL (≈ 149 µM)
solubility at 24 h ([4]; ethanol, organic solvent or mixture): 0.5 mg/mL (≈ 1490 µM)
solubility at 24 h ([4]; ethyl acetate, organic solvent or mixture): 0.32 mg/mL (≈ 951 µM)
solubility at 24 h ([4]; heptane, organic solvent or mixture): < 0.005 mg/mL
solubility at 24 h ([4]; isopropanol, organic solvent or mixture): 0.28 mg/mL (≈ 832 µM)
solubility at 24 h ([4]; methanol, organic solvent or mixture): 1.13 mg/mL (≈ 3360 µM)
solubility ([4]; organic solvent or mixture, Dimethyl Sulfoxide, estimated from visual observation of complete dissolution): > 50 mg/mL
solubility at 24 h ([4]; tetrahydrofuran, organic solvent or mixture): 5.5 mg/mL (≈ 16400 µM)
solubility at 24 h ([4]; Water, room temperature, 24 hours): 0.08 mg/mL (≈ 238 µM)
XRPD Result 24 hours ([5]; equilibration at room temperature, 2-Propanol): Form A
XRPD Result 24 hours ([5]; equilibration at room temperature, Acetone): Form A
XRPD Result 24 hours ([5]; equilibration at room temperature, Acetonitrile): Form A
XRPD Result 24 hours ([5]; equilibration at room temperature, Ethanol): Form A
XRPD Result 24 hours ([5]; equilibration at room temperature, Ethanol/Water (1:1)): Form A
XRPD Result 24 hours ([5]; equilibration at room temperature, Ethyl acetate): Form A
XRPD Result 24 hours ([5]; equilibration at room temperature, Heptane): Form A
XRPD Result 24 hours ([5]; equilibration at room temperature, Methanol): Form A
XRPD Result 24 hours ([5]; equilibration at room temperature, Methyl ethyl ketone): Form A
XRPD Result 24 hours ([5]; equilibration at room temperature, Methyl t-butyl ether): Form A
XRPD Result 24 hours ([5]; equilibration at room temperature, Methylene chloride): Form A
XRPD Result 24 hours ([5]; equilibration at room temperature, Tetrahydrofuran): Form A
XRPD Result 24 hours ([5]; equilibration at room temperature, Toluene): Form A
XRPD Result 24 hours ([5]; equilibration at room temperature, Water): Form A
XRPD Result 24 hours ([5]; equilibration at room temperature, n-Butanol): Form A
XRPD Result 24 hours ([5]; slurry at 50° C., 2-Propanol): Form A
XRPD Result 24 hours ([5]; slurry at 50° C., Acetone): Form A
XRPD Result 24 hours ([5]; slurry at 50° C., Acetonitrile): Form A
XRPD Result 24 hours ([5]; slurry at 50° C., Ethanol): Form A
XRPD Result 24 hours ([5]; slurry at 50° C., Ethanol/Water (1:1)): Form A
XRPD Result 24 hours ([5]; slurry at 50° C., Ethyl acetate): Form A
XRPD Result 24 hours ([5]; slurry at 50° C., Heptane): Form A
XRPD Result 24 hours ([5]; slurry at 50° C., Methanol): Form A
XRPD Result 24 hours ([5]; slurry at 50° C., Methyl ethyl ketone): Form A
XRPD Result 24 hours ([5]; slurry at 50° C., Tetrahydrofuran): Form A
XRPD Result 24 hours ([5]; slurry at 50° C., Toluene): Form A
XRPD Result 24 hours ([5]; slurry at 50° C., Water): Form A
XRPD Result 24 hours ([5]; slurry at 50° C., n-Butanol): Form A
SMILES: CCN1C(=O)CNc2ncc(-c3ccc(-c4nnc[nH]4)nc3C)nc21 [Form A, 1-ethyl-7-(2-methyl-6-(1H-1,2,4-triazol-3-yl)pyridin-3-yl)-3,4-dihydropyrazino[2,3-b]pyrazin-2(1H)-one]
hygroscopicity ([2]; DVS, in words): non-hygroscopic; also recorded: not hygroscopic

Moisture sorption (wt % at 90% RH) ([2]; listed as B): 20.7 wt %
XRPD Result ([3]; slurry in Acetonitrile, seed None, 3 days): Form A
SMILES: CCN1C(=O)CNc2ncc(-c3ccc(-c4nnc[nH]4)nc3C)nc21 [Form B, 1-ethyl-7-(2-methyl-6-(1H-1,2,4-triazol-3-yl)pyridin-3-yl)-3,4-dihydropyrazino[2,3-b]pyrazin-2(1H)-one]

Moisture sorption (wt % at 90% RH) ([2]; listed as C): 12.2 wt %
XRPD Result ([3]; slurry in H2O, seed None, 1 week): Form C
XRPD Result [3, 10]: Form C
SMILES: CCN1C(=O)CNc2ncc(-c3ccc(-c4nnc[nH]4)nc3C)nc21 [Form C, 1-ethyl-7-(2-methyl-6-(1H-1,2,4-triazol-3-yl)pyridin-3-yl)-3,4-dihydropyrazino[2,3-b]pyrazin-2(1H)-one]

Moisture sorption (wt % at 90% RH) [2]: 5.9 wt %
weight gain [2, 6]: about 2.3 % w/w
weight gain [2, 7]: about 5.8 % w/w
mass gain [2, 8]: less than 4 % w/w
mass gain [2, 9]: about 1.1 % w/w
XRPD Result ([3]; slurry in Acetonitrile, seed None, 1 week): Form A
XRPD Result [3, 10]: Form C
SMILES: CCN1C(=O)CNc2ncc(-c3ccc(-c4nnc[nH]4)nc3C)nc21 [Form E, 1-ethyl-7-(2-methyl-6-(1H-1,2,4-triazol-3-yl)pyridin-3-yl)-3,4-dihydropyrazino[2,3-b]pyrazin-2(1H)-one]
